Measurements as given in patent publication US8962575B2, “Clerodane derivatives for modulation of leukotriene receptor activity and related diseases” (Biotropics Malaysia Berhad, priority 2011, dated 2015).

The compounds below were run against T1, Human BLT2 Receptor (Homo sapiens, UniProt Q9NPC1) (assay: Recombinant cell assay (calcium flux, antagonist mode, LTB4 pre-stimulation)). Conditions: pure compounds at 10 μM, 5 min pre-incubation; antagonist mode with LTB4; BLT2 HEK293T cells.
T1 construct: host or cells: BLT2 HEK293T cells transiently transfected with chimeric G protein Gαqi5
T1 sequence (Q9NPC1 1-358): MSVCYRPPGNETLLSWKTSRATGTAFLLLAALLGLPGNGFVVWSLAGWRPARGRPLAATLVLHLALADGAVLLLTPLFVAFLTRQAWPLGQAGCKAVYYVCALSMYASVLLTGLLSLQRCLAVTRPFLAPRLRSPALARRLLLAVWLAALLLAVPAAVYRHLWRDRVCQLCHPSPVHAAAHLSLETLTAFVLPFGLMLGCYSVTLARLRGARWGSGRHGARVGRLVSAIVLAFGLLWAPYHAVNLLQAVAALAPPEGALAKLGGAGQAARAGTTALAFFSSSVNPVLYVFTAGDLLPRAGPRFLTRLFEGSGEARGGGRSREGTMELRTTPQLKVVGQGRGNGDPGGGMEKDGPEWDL
Format: cell-based
Protocol: A) Recombinant Cell Assay (Human BLT2 Receptor)
The BLT2 assay conducted was a functional cell based assay, with transiently transfected HEK293T cells (Transfection: with chimeric G protein Gαqi5; Minami et al, “Analysis of the effects of halothane on Gi-coupled muscarinic M2 receptor signal” Pharmacology (2004) 72: 205-12). […] The test items were measured subsequently in the antagonist mode as described above in a concentration of 10 μM (pure compounds) or 15 μg/ml (extracts and/or mixtures).
This assay was performed by Multispan, Inc., Hayward (CA, USA) under the catalog no C1272, the assay principle is outlined by Yokomizo (J Exp Med (2000) 192:421-432).
• Cells: BLT2 HEK293T cells transiently transfected with chimeric G protein Gαqi5 • Compounds: Test compounds dissolved in DMSO at a concentration of 10 mM or 100 mg/mL.
Calcium assay: Cells were seeded in 384-well plates at appropriate densities and cultured overnight. Calcium assays were conducted according to the manufacturer's protocol using Molecular Devices FLIPR Calcium 4 Assay kit. Calcium 4 dye loading buffer was added to the cells and incubated for one hour at 37° C. The test compounds were pre-incubated for 5 minutes at a final concentration of 10 μM or 15 μg/mL, respectively. Calcium flux was measured for 90 seconds with the respective agonist compound injected into the wells at 19th second. Agonist was used at a concentration in which maximum reaction was observed.
Data analysis: Calcium assay results are expressed as “RFU” (Relative Fluorescence Units) and are shown in the following table as “remaining % RFU against DMOS) (meaning % Increase in RFU after correction for DMSO and baseline). Two-tailed Student's t-test was used for treatment comparisons and statistic significance was defined as p<0.05.

| Compound | remaining % RFU against DMSO [%] |
| --- | --- |
| COC(=O)C1=CC(O)CC2C3(C)CC(c4ccoc4)OC(=O)C3CC(OC3OC(CO)C(O)C(O)C3O)C12C (stereo not drawn) [COI 4, methyl 2-(furan-3-yl)-9-hydroxy-6a,10b-dimethyl-4-oxo-6-(3,4,5-trihydroxy-6-(hydroxymethyl)tetrahydro-2H-pyran-2-yloxy)-2,4,4a,5,6,6a,9,10,10a,10b-decahydro-1H-benzo[f]isochromene-7-carboxylate] | 78.6 |
| COC(=O)C1=CCCC2C3(C)CC(c4ccoc4)OC(=O)C3CC(OC3OC(CO)C(OC4OC(CO)C(O)C(O)C4O)C(O)C3O)C12C (stereo not drawn) [COI 5, methyl 6-(3,4-dihydroxy-6-(hydroxymethyl)-5-(3,4,5-trihydroxy-6-(hydroxymethyl)tetrahydro-2H-pyran-2-yloxy)tetrahydro-2H-pyran-2-yloxy)-2-(furan-3-yl)-6a,10b-dimethyl-4-oxo-2,4,4a,5,6,6a,9,10,10a,10b-decahydro-1H-benzo[f]isochromene-7-carboxylate] | 79.7 |
| CC12CC(c3ccoc3)OC(=O)C1CC1OC(=O)C3(O)C(OC4OC(CO)C(O)C(O)C4O)CCC2C13C (stereo not drawn) [COI 7, 9-(furan-3-yl)-3a-hydroxy-3a1,10a-dimethyl-3-(3,4,5-trihydroxy-6-(hydroxymethyl)tetrahydro-2H-pyran-2-yloxy)decahydroisobenzofuro[7,1-fg]isochromene-4,7(3a1H,5aH)-dione] | 83.2 |
